# Patent US20100166772A1, “ANTIGEN-BINDING PROTEINS TARGETING S. AUREUS ORF0657n” (priority 2007, published 2010)
# Several values for one entry are separate records, joined by “and”; a condition that tells them apart may be missing. Equal values may be shown once.
# Tested on: S. aureus Becker
# Assay: Combination treatment vancomycin and mAb in cannulated rats, catheter bacteria load
# Format: in vivo
# Conditions: for Catheter CFU Exp#1 / Catheter CFU Exp#2: 24 hours
# Procedure: Cannulated rats were given vancomycin (20 mpk) sub. cu. at 1 hour (1 H) prior to iv challenge with 2−4×10^9 CFU of S. aureus Becker. At 1 H post challenge, the rats were injected with 6 mg/rat of either the mAb CS-D6, an isotype control mAb 20C2HA, or PBS. At 24 hours post challenge, the animals were sacrificed, the jugular vein catheters harvested and evaluated for the bacteria load on the catheter. Evaluation of catheters was performed by placement in selective broth medium, and outgrowth on the Piccolo incubation system. Outgrowth was compared to standard curves of S. aureus growth under the same conditions to calculate the number of CFU on the experimental catheters. In the first set of experiments (Table 15), small numbers of animals were used to test the system. In the second set of experiments (Table 16), larger numbers of rats were used. […] This model was designed to simulate a clinical situation in which a patient is undergoing surgery or other invasive procedure, and getting an empiric or prophylactic antibiotic. In the model, the mAb was injected after bacteria exposure, simulating adjunctive mAb treatment for infection during surgery.
# [1] = Table 15, individual rats, vancomycin 20 mpk sub. cu. 1 H prior, 6 mg/rat mAb 1 H post challenge
# [2] = Table 16, individual rats, larger numbers of rats, vancomycin 20 mpk, 6 mg/rat mAb
structure (smiles),measurement,setting,value
"CN[C@H](CC(C)C)C(=O)N[C@H]1C(=O)N[C@@H](CC(N)=O)C(=O)N[C@H]2C(=O)N[C@H]3C(=O)N[C@H](C(=O)N[C@H](C(=O)O)c4cc(O)cc(O)c4-c4cc3ccc4O)[C@H](O)c3ccc(c(Cl)c3)Oc3cc2cc(c3O[C@@H]2O[C@H](CO)[C@@H](O)[C@H](O)[C@H]2O[C@H]2C[C@](C)(N)[C@H](O)[C@H](C)O2)Oc2ccc(cc2Cl)[C@H]1O [Vancomycin + PBS, vancomycin]",Catheter CFU Exp#1,[1],"0 CFU and 38,725,264 CFU"
same,Catheter CFU Exp#2,[1],0 CFU (3×) and 217 CFU
same,Catheter CFU Exp#1,[2],"64 CFU and 309 CFU and 973 CFU and 5,015 CFU and 5,108 CFU and 7,353,005 CFU"
same,Catheter CFU Exp#2,[2],"0 CFU and 63 CFU (2×) and 291 CFU and 6,517,926 CFU and 7,829,527 CFU"
same,Catheter CFU Geo mean,"Table 16, catheters with no outgrowth assigned value of 10","3,368 CFU"
same,Catheter CFU Geo mean,in vivo,45 CFU
